Experimental findings from patent publication EP4810052A2, “HCRHR2 SELECTIVE POLYPEPTIDES” (Gubra A/S, priority 2023, dated 2026) are described below.

SMILES strings stand for the structures. Where two headings read alike, the source gives them in different places. Starred links: 1 amine or outer side, 2 acyl side, 3 side chain; linkers in the order of their positions; H or OH if unused. Non-standard residues stand in square brackets, D forms with d. Residues, ends and D or L forms follow the SMILES beside them. Groups on a side chain read outwards from the residue. *: point of attachment. C20 diacid = O=C(O)CCCCCCCCCCCCCCCCCCC(=O)*; Pro(cis-4-F) = O=C(O)[C@@H]1C[C@H](F)CN1; Pro(4S-NH2) = N[C@@H]1CN[C@H](C(=O)O)C1; γGlu = O=C(O)[C@H](CCC(=O)[*:2])N[*:1]; Nle = CCCC[C@H](N)C(=O)O; AEEA = NCCOCCOCC(=O)O

Test [1] has as its target T1, hCRHR2 (Homo sapiens, UniProt Q13324).
T1 sequence (Q13324 1-411): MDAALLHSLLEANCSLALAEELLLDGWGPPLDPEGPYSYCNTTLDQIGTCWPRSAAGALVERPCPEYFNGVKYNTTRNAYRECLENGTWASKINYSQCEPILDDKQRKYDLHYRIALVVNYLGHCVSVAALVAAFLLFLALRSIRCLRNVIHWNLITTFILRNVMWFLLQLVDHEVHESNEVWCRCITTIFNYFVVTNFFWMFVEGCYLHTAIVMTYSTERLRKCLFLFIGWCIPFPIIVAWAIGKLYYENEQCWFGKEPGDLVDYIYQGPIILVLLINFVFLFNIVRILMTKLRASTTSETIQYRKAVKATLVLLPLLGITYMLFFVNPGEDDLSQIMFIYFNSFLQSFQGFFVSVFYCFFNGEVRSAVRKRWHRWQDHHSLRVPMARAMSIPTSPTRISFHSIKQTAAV
In words: HTRF cAMP assay, determination of hCRHR2 potency (peptide libraries 5 conc., purified peptides 11 conc.). It is filed as cell-based. An outline of the steps: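 Potency was read as cAMP accumulation in a stable CHO-K1 line expressing human CRHR2, used in suspension right after thawing. Detection relied on energy transfer from antibody-bound cryptate to d2-cAMP.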

Test [2] deals with T2, hCRHR1 (Homo sapiens, UniProt P34998).
T2 sequence (P34998 24-415): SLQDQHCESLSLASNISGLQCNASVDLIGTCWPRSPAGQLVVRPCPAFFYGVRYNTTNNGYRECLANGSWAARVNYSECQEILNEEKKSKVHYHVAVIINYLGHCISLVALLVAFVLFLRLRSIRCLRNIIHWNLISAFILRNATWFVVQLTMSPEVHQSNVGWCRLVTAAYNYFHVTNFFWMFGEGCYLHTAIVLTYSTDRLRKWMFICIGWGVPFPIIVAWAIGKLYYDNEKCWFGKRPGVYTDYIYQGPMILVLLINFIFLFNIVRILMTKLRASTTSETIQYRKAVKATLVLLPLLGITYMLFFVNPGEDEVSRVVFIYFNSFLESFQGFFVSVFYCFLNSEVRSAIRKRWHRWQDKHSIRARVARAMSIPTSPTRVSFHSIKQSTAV
In words: HTRF cAMP assay, determination of hCRHR1 potency (peptide libraries 5 conc., purified peptides 11 conc.). It is filed as cell-based. An outline of the steps: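 CHO-K1 cells stably expressing human CRHR1, thawed from frozen stocks just before use, were stimulated in suspension with agonist peptides. cAMP was measured by HTRF competitive immunoassay (cryptate anti-cAMP antibody vs d2-cAMP).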

[3] abbreviates: Table 3, matched molecular pairs X^38 L vs Nle, peptide library of Example 4, read-out: hCRHR2 pEC50 (converted).
The mark [4] stands for this setting: Table 3, matched molecular pairs X^38 L vs Nle, peptide library of Example 4, read-out: hCRHR1 pEC50 (converted).
Setting [5] is: library peptides, matched molecular pairs L vs Nle in position X^38, read-out: Potency hCRHR2 pEC50 (converted).
The mark [6] stands for this setting: library peptides, matched molecular pairs L vs Nle in position X^38, read-out: Potency hCRHR1 pEC50 (converted).

For `CC[C@H](C)[C@H](N)C(=O)N[C@H](C(=O)N[C@@H](CC(C)C)C(=O)N[C@@H](CO)C(=O)N[C@@H](CC(C)C)C(=O)N[C@@H](CC(=O)O)C(=O)N[C@H](C(=O)N1CCC[C@H]1C(=O)N[C@H](C(=O)NCC(=O)N[C@@H](CC(C)C)C(=O)N[C@@H](CC(C)C)C(=O)N[C@@H](CCC(N)=O)C(=O)N[C@H](C(=O)N[C@@H](CC(C)C)C(=O)N[C@@H](CC(C)C)C(=O)N[C@@H](CCC(=O)O)C(=O)N[C@@H](CCC(N)=O)C(=O)N[C@@H](C)C(=O)N[C@@H](CCCNC(=N)N)C(=O)N[C@@H](C)C(=O)N[C@@H](CCCNC(=N)N)C(=O)N[C@@H](C)C(=O)N[C@@H](C)C(=O)N[C@@H](CCCNC(=N)N)C(=O)N[C@@H](CCC(=O)O)C(=O)N[C@@H](CCCNC(=N)N)C(=O)N[C@@H](C)C(=O)N[C@@H](CCCCNC(=O)COCCOCCNC(=O)COCCOCCNC(=O)CC[C@H](NC(=O)CC[C@H](NC(=O)CCCCCCCCCCCCCCCCCCC(=O)O)C(=O)O)C(=O)O)C(=O)N[C@H](C(=O)N[C@@H](CC(N)=O)C(=O)N[C@@H](C)C(=O)N[C@@H](CCC(=O)O)C(=O)N[C@H](C(=O)N[C@@H](CC(C)C)C(=O)N[C@@H](C)C(=O)N[C@@H](CCC(=O)O)C(=O)N[C@H](C(N)=O)C(C)C)[C@@H](C)CC)[C@@H](C)O)[C@@H](C)CC)[C@@H](C)CC)C(C)C)C(C)C` [compound 66] (H-IVLSLDVPIGLLQILLEQARARAARERAK([AEEA-AEEA-γGlu-γGlu-C20 diacid])TNAEILAEV-NH2), the EC50 in test [1] is 0.316 nM; in test [2], 50100 nM.

Consider `CC[C@H](C)[C@H](N)C(=O)N[C@H](C(=O)N[C@@H](CC(C)C)C(=O)N[C@@H](CO)C(=O)N[C@@H](CC(C)C)C(=O)N[C@@H](CC(=O)O)C(=O)N[C@H](C(=O)N1CCC[C@H]1C(=O)N[C@H](C(=O)NCC(=O)N[C@@H](CC(C)C)C(=O)N[C@@H](CC(C)C)C(=O)N[C@@H](CCC(N)=O)C(=O)N[C@H](C(=O)N[C@@H](CC(C)C)C(=O)N[C@@H](CC(C)C)C(=O)N[C@@H](CCC(=O)O)C(=O)N[C@@H](CCC(N)=O)C(=O)N[C@@H](C)C(=O)N[C@@H](CCCNC(=N)N)C(=O)N[C@@H](C)C(=O)N[C@@H](CCCNC(=N)N)C(=O)N[C@@H](CO)C(=O)N[C@@H](C)C(=O)N[C@@H](CCCNC(=N)N)C(=O)N[C@@H](CCC(=O)O)C(=O)N[C@@H](CCC(N)=O)C(=O)N[C@@H](C)C(=O)N[C@@H](CCCCNC(=O)COCCOCCNC(=O)COCCOCCNC(=O)CC[C@H](NC(=O)CC[C@H](NC(=O)CCCCCCCCCCCCCCCCCCC(=O)O)C(=O)O)C(=O)O)C(=O)N[C@H](C(=O)N[C@@H](CC(N)=O)C(=O)N[C@@H](C)C(=O)N[C@@H](CCC(=O)O)C(=O)N[C@H](C(=O)N[C@@H](CC(C)C)C(=O)N[C@@H](C)C(=O)N[C@@H](CCC(=O)O)C(=O)N[C@H](C(N)=O)[C@@H](C)CC)[C@@H](C)CC)[C@@H](C)O)[C@@H](C)CC)[C@@H](C)CC)C(C)C)C(C)C` [SEQ ID NO: 35] (H-IVLSLDVPIGLLQILLEQARARSAREQAK([AEEA-AEEA-γGlu-γGlu-C20 diacid])TNAEILAEI-NH2), for which the values for the EC50 in test [1] (setting [3]) and in test [2] (setting [4]) were 0.501 nM and 79400 nM, respectively.

Regarding `CCCC[C@H](NC(=O)[C@@H](NC(=O)[C@H](CCC(=O)O)NC(=O)[C@H](C)NC(=O)[C@H](CC(N)=O)NC(=O)[C@@H](NC(=O)[C@H](CCCCNC(=O)COCCOCCNC(=O)COCCOCCNC(=O)CC[C@H](NC(=O)CC[C@H](NC(=O)CCCCCCCCCCCCCCCCCCC(=O)O)C(=O)O)C(=O)O)NC(=O)[C@H](C)NC(=O)[C@H](CCC(N)=O)NC(=O)[C@H](CCC(=O)O)NC(=O)[C@H](CCCNC(=N)N)NC(=O)[C@H](C)NC(=O)[C@H](C)NC(=O)[C@H](CCC(=O)O)NC(=O)[C@H](C)NC(=O)[C@H](CCCNC(=N)N)NC(=O)[C@H](C)NC(=O)[C@H](CCC(N)=O)NC(=O)[C@H](CCC(=O)O)NC(=O)[C@H](CC(C)C)NC(=O)[C@H](CC(C)C)NC(=O)[C@@H](NC(=O)[C@H](CCC(N)=O)NC(=O)[C@H](CC(C)C)NC(=O)[C@H](CC(C)C)NC(=O)CNC(=O)[C@@H](NC(=O)[C@@H]1CCCN1C(=O)[C@@H](NC(=O)[C@H](CC(=O)O)NC(=O)[C@H](CC(C)C)NC(=O)[C@H](CO)NC(=O)[C@H](CC(C)C)NC(=O)[C@@H](NC(=O)[C@@H](N)[C@@H](C)CC)C(C)C)C(C)C)[C@@H](C)CC)[C@@H](C)CC)[C@@H](C)O)[C@@H](C)CC)C(=O)N[C@@H](C)C(=O)N[C@@H](CCC(=O)O)C(=O)N[C@H](C(N)=O)C(C)C` [SEQ ID NO: 26] (H-IVLSLDVPIGLLQILLEQARAEAAREQAK([AEEA-AEEA-γGlu-γGlu-C20 diacid])TNAEI[Nle]AEV-NH2), the values for the EC50 in test [1] (setting [3]) and in test [2] (setting [4]) were 0.316 nM and 251 nM, respectively.

In the case of `CCCC[C@H](NC(=O)[C@@H](NC(=O)[C@H](CCC(=O)O)NC(=O)[C@H](C)NC(=O)[C@H](CC(N)=O)NC(=O)[C@@H](NC(=O)[C@H](CCCCNC(=O)COCCOCCNC(=O)COCCOCCNC(=O)CC[C@H](NC(=O)CC[C@H](NC(=O)CCCCCCCCCCCCCCCCCCC(=O)O)C(=O)O)C(=O)O)NC(=O)[C@H](C)NC(=O)[C@H](CCC(N)=O)NC(=O)[C@H](CCC(=O)O)NC(=O)[C@H](CCCNC(=N)N)NC(=O)[C@H](C)NC(=O)[C@H](C)NC(=O)[C@H](CCCNC(=N)N)NC(=O)[C@H](C)NC(=O)[C@H](CCCNC(=N)N)NC(=O)[C@H](C)NC(=O)[C@H](CCC(N)=O)NC(=O)[C@@H](NC(=O)[C@H](CC(C)C)NC(=O)[C@H](CC(C)C)NC(=O)[C@@H](NC(=O)[C@H](CCC(N)=O)NC(=O)[C@H](CC(C)C)NC(=O)[C@H](CC(C)C)NC(=O)CNC(=O)[C@@H](NC(=O)[C@@H]1C[C@H](F)CN1C(=O)[C@@H](NC(=O)[C@H](CC(=O)O)NC(=O)[C@H](CC(C)C)NC(=O)[C@H](CO)NC(=O)[C@H](CC(C)C)NC(=O)[C@@H](NC(=O)[C@@H](N)[C@@H](C)CC)C(C)C)C(C)C)[C@@H](C)CC)[C@@H](C)CC)[C@@H](C)O)[C@@H](C)O)[C@@H](C)CC)C(=O)N[C@@H](C)C(=O)N[C@@H](CCC(=O)O)C(=O)N[C@H](C(N)=O)C(C)C` [compound 81] (H-IVLSLDV[Pro(cis-4-F)]IGLLQILLTQARARAAREQAK([AEEA-AEEA-γGlu-γGlu-C20 diacid])TNAEI[Nle]AEV-NH2), the EC50 in test [1] (setting [5]) was 0.2 nM; in test [2] (setting [6]), 398000 nM.

On to `CC[C@H](C)[C@H](N)C(=O)N[C@H](C(=O)N[C@@H](CC(C)C)C(=O)N[C@@H](CO)C(=O)N[C@@H](CC(C)C)C(=O)N[C@@H](CC(=O)O)C(=O)N[C@H](C(=O)N1C[C@@H](N)C[C@H]1C(=O)N[C@H](C(=O)NCC(=O)N[C@@H](CC(C)C)C(=O)N[C@@H](CC(C)C)C(=O)N[C@@H](CCC(N)=O)C(=O)N[C@H](C(=O)N[C@@H](CC(C)C)C(=O)N[C@@H](CC(C)C)C(=O)N[C@@H](CCC(=O)O)C(=O)N[C@@H](CCC(N)=O)C(=O)N[C@@H](C)C(=O)N[C@@H](CCCNC(=N)N)C(=O)N[C@@H](C)C(=O)N[C@@H](CCCNC(=N)N)C(=O)N[C@H](C(=O)N[C@@H](C)C(=O)N[C@@H](CCCNC(=N)N)C(=O)N[C@@H](CCC(=O)O)C(=O)N[C@@H](CCC(N)=O)C(=O)N[C@@H](C)C(=O)N[C@@H](CCCCNC(=O)COCCOCCNC(=O)COCCOCCNC(=O)CC[C@H](NC(=O)CC[C@H](NC(=O)CCCCCCCCCCCCCCCCCCC(=O)O)C(=O)O)C(=O)O)C(=O)N[C@H](C(=O)N[C@@H](CC(N)=O)C(=O)N[C@@H](C)C(=O)N[C@@H](CCC(=O)O)C(=O)N[C@H](C(=O)N[C@@H](CC(C)C)C(=O)N[C@@H](C)C(=O)N[C@@H](CCC(=O)O)C(=O)N[C@H](C(N)=O)C(C)C)[C@@H](C)CC)[C@@H](C)O)C(C)C)[C@@H](C)CC)[C@@H](C)CC)C(C)C)C(C)C` [compound 76] (H-IVLSLDV[Pro(4S-NH2)]IGLLQILLEQARARVAREQAK([AEEA-AEEA-γGlu-γGlu-C20 diacid])TNAEILAEV-NH2), for which the EC50 in test [1] (setting [5]) and in test [2] (setting [6]) was 1.58 nM throughout.
